Experimental data: publication PMC6017591, “Design, Synthesis and in Combo Antidiabetic Bioevaluation of Multitarget Phenylpropanoic Acids” (Molecules : A Journal of Synthetic Chemistry and Natural …, 2018)

Tests used:
[1] = test system: STZ-NA induced diabetes mice model; assay: In vivo antidiabetic effect in STZ-NA induced diabetes mice model; design: species or system CD1 mice; settings: 100 mg/kg single dose, intragastric
Procedure: Glibenclamide was used as a positive control, in order to ensure that the damage over β-cells was partial and mice pancreas still produces insulin, that responds to a secretagogue such as sulfonylurea drug used in this work.
CD1 mice (20–25 g) were housed in groups of six (n = 6) under laboratory conditions. Before experimentation, all animals were fasted for 16 h with water ad libitum. All animal procedures were conducted in accordance with the Mexican Federal Regulations for Animal Experimentation and Care (SAGARPA, NOM-062-ZOO-1999), based on US National Institutes of Health Publication #85-23, revised 1985. Non-insulin-dependent diabetes mice model was induced in overnight fasted mice by a single i.p. injection of 100 mg/kg STZ, 15 min before the i.p. administration of 40 mg/kg of NA. Hyperglycaemia was established by the higher plasma glucose concentration, determined by glucometer after 2 weeks. The animals with glycaemia higher than 200 mg/dL were selected for the assay. The diabetic mice were separated into […] of six animals each (n = 6). Mice of experimental groups were administered with a suspension of the molecules 1–3 (100 mg/kg, prepared in 10% (v/v) tween 80). Control group mice were similarly treated with 10% tween 80. […] The samples of blood were collected from the caudal vein at 0, 1, 3, 5 and 7 h after administration of each compound. Blood glucose levels were estimated using a commercial glucometer. The percentage variation of glycemia for each group was calculated. Values are expressed as mean ± S.E.M. Statistical significance was estimated by ANOVA.

GPR40 = GPR40 (Homo sapiens, UniProt O14842); assay: GPR40 agonist calcium flux assay in hGPR40/Gα16/HEK293 cells; settings: for Emax at 100 µM: HEK293, read-out: Maximal Response % (100 μM)
Chain of GPR40 (O14842 whole entry): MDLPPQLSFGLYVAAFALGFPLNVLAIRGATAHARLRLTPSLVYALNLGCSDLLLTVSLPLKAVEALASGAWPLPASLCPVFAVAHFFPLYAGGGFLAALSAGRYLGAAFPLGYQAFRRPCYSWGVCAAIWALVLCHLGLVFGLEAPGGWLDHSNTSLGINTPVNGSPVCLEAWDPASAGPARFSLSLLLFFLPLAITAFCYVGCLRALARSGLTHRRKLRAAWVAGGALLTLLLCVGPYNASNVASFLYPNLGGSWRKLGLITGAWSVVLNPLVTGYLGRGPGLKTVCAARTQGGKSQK
Procedure: Linoleic acid (LA), one of the endogenous ligands for GPR40, was designated as positive control.
This bioassay was previously described [2]. Briefly: About 4 × 10^4 h GPR40/HEK293 per well were seeded in 96-well plate. After culturing for 24 h, cells were loaded with 2 μmol/L Fluo-4 AM in Hanks’ balanced salt solution at 37 °C for 40 min.

GLUT-4 = assay: Relative mRNA expression of GLUT-4 in 3T3-L1 adipocytes; type: cell-based; settings: 24 h treatment
Excerpt: 3T3-L1 fibroblasts were differentiated to the adipocyte phenotype in order to determine the action of compounds on PPARγ and GLUT-4 expression. […] The activation of PPARγ could reduce the glucose levels in diabetic patients due to insulin resistance reduction. […] Several evidences indicate that increased levels of GLUT-4 expression in skeletal muscle are critical for the regulation of glucose homeostasis.
Both assays were achieved as described elsewhere. Briefly: 3T3-L1 fibroblasts (9 × 10^5 cells per well) were cultured in 6-well plates in Dulbecco’s modified Eagle’s medium. After 2 days of confluence, the cells were differentiated to the adipocyte phenotype with 0.5 mM 3-isobutyl-1-methylxanthine, 0.25 μM dexamethasone acetate, and 0.8 μM insulin, for 48 h, followed by insulin alone for other 48 h. To determine the action of compounds on PPARγ and GLUT-4 expression, the cells were treated 24 h. RNA was isolated from cultured cells and two μg of total RNA were reverse-transcripted in a thermocycler. The enzyme was inactivated and finally samples were cooled. […] PCR was conducted and the threshold cycles (Ct) were measured in separate tubes and in duplicate. The ΔCt values were calculated in every sample for each gene of interest. Relative changes in the expression level of one specific gene (ΔΔCt) were calculated.

human recombinant AKR1B1 = human recombinant AKR1B1 (Homo sapiens, UniProt P15121); assay: Aldose reductase (AKR1B1) inhibition assay
Procedure: Human recombinant AKR1B1 was purified by electrophoretic homogeneity as previously described [24]. The enzyme activity was corroborated at 37 °C following the decrease of absorbance at 340 nm. […] IC50 values was determined by nonlinear regression analysis. For each curve, five different concentrations of compounds were analyzed [25].

| Structure (SMILES) | EC50 (GPR40) [µM] | Emax at 100 µM (GPR40) [%] | Increase in GLUT-4 levels (mRNA expression) (GLUT-4) [times] | other results |
| --- | --- | --- | --- | --- |
| O=C(O)CCc1ccc(OCc2cccc(-c3ccccc3)c2)cc1 [Compound 1, 3-[4-(Biphenyl-3-ylmethoxy)phenyl]propanoic acid] | 0.075 ± 0.02 | 98 ± 10 | – | In vivo antidiabetic activity (in words) ([1]; STZ-NA diabetic mice): lack of in vivo activity |
| O=C(O)CCc1ccc(OCc2cccc3ccccc23)cc1 [Compound 2, 3-[4-(1-Naphthylmethoxy)phenyl]propanoic acid] | – | – | 2 to 4 | Decrease of blood glucose levels ([1]; 7 h after administration, STZ-NA diabetic mice): ~80% |
| N#Cc1ccccc1-c1ccc(COc2ccc(CCC(=O)O)cc2)cc1 [Compound 3, 3-{4-[(2′-Cyanobiphenyl-4-yl)methoxy]phenyl} propanoic acid] | – | – | 2 to 4 | Glucose lowering effect (variation of glycemia) ([1]; at 3 h): −20%; Glucose lowering effect (variation of glycemia) ([1]; at 5 h): −50%; Glucose lowering effect (variation of glycemia) ([1]; at 7 h): −60% |
| O=C(O)CCc1ccc(OCc2ccc3ccccc3n2)cc1 [Compound 4, 3-[4-(Quinolin-2-ylmethoxy)phenyl]propanoic acid] | ~100 | 84 | – | – |
| O=C(O)CCc1ccc(OCC(=O)Nc2nc3ccccc3s2)cc1 [Compound 5, 3-{4-[2-(1,3-Benzothiazol-2-ylamino)-2 oxoethoxy]phenyl}propanoic Acid] | > 100 | 9.9 | – | IC50 (human recombinant AKR1B1): 23.3 µM; GPR40 agonistic activity (in words) (GPR40; calcium assay): inactive |
| CCCCC/C=C\C/C=C\CCCCCCCC(=O)O [LA, Linoleic acid, reference compound] | 8.3 ± 1.7 | 100 | – | – |
